From ChEMBL document CHEMBL1201862, “PubChem BioAssay data set” (2004)
Active and inactive are the calls of the source.

Legend:
[1] = target: T1, Calpain-2 catalytic subunit (Sus scrofa, UniProt P43367); test: m-calpain protease blockers, concentration series – biochemical, fluorogenic peptide substrate, dose response (AID 1420); type: functional
T1 sequence (P43367 whole entry): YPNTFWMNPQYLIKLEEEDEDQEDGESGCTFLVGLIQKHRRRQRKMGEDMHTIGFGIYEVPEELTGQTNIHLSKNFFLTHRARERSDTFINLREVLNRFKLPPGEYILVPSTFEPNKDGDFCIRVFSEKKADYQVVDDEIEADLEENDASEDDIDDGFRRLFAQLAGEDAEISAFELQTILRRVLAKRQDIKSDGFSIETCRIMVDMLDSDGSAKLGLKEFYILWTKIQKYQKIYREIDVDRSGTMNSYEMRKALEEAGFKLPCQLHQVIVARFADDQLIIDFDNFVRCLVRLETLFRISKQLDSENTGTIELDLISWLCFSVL

cells [2] = test: cells
[3] = viability of uninfected HEp-2 cells – cell-based, HTS, cytotoxicity control for RSV inhibitor project, dose response (AID 2410); type: functional; conditions: human respiratory syncytial virus
[4] = target: FAD-linked sulfhydryl oxidase ALR (Homo sapiens, UniProt P55789); test: ALR-catalysed DTT oxidation blockers – biochemical, H2O2 detection, luminescence, cherry-pick, dose response (AID 493248)
Chain of FAD-linked sulfhydryl oxidase ALR (P55789 whole entry): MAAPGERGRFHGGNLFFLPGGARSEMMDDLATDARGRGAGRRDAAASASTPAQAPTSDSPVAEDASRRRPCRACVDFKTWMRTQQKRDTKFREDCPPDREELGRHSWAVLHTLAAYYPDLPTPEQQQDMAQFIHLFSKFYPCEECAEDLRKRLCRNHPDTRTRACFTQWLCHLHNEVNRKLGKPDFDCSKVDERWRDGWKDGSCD

[5] = target: T2, Ubiquitin-conjugating enzyme E2 N (Homo sapiens, UniProt P61088); type: functional;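 also: Dose-response confirmation in a TR-FRET assay detecting UBC13-driven polyubiquitin chain formation, inhibition measured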
T2 sequence (P61088 whole entry): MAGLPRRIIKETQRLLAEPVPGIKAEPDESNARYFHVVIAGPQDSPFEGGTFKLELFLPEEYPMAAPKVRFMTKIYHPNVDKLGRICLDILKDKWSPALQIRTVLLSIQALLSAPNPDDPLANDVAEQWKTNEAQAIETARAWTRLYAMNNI

[6] = Luminescence Cell-Based Dose Confirmation HTS to Identify Inhibitors of Platelet Dense Granule Release. [Related pubchem assays: 1663 (Primary HTS), 1678 (Summary of Project)]; type: functional
[7] = target: Luciferin 4-monooxygenase (Photinus pyralis, UniProt P08659); test: inhibition of purified Photinus pyralis luciferase – biochemical, luminescence, dose response (AID 1891)
Chain of Luciferin 4-monooxygenase (P08659 whole entry): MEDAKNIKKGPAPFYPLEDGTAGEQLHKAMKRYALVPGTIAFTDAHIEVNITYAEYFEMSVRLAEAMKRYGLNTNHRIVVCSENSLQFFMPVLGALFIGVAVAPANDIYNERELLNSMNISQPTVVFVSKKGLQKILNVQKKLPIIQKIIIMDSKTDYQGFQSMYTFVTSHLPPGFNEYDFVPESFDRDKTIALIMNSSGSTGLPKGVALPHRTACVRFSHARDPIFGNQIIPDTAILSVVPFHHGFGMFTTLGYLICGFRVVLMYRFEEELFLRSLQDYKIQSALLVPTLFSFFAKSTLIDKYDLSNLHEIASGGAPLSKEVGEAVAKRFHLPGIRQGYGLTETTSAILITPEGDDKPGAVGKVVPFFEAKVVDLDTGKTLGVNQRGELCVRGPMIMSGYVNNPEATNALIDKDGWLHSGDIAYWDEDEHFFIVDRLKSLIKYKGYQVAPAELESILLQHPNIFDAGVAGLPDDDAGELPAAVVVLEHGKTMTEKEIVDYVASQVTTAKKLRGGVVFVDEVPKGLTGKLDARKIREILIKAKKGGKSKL

Cytochrome P450 2C19 = Cytochrome P450 2C19 (Homo sapiens, UniProt P33261); test: Cytochrome panel assay with activity outcomes. Panel member name: p450-cyp2c19 Compounds with AC50 equal or less than 10 uM are considered active; type: functional; conditions: read-out: AC50
Chain of Cytochrome P450 2C19 (P33261 whole entry): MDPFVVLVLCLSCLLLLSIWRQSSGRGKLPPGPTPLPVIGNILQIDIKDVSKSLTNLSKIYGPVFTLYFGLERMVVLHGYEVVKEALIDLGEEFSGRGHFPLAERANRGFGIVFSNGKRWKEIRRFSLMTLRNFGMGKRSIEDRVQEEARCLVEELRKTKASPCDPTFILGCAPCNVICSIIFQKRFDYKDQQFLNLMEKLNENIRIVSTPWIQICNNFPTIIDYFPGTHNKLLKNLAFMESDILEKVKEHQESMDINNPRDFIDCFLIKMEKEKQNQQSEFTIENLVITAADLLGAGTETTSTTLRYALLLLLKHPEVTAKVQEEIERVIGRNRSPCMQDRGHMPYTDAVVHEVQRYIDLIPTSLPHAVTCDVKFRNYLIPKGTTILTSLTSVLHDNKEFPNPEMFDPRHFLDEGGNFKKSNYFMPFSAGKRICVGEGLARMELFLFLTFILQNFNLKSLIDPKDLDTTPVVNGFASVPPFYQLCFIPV

[8] = viability of HCT116 lacking mutant beta-catenin – cell-based, human colon tumor, dose response (AID 1045); type: functional;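 also: HCT116 colon tumor cells with beta catenin knocked out; cells exposed to compound for 60 hours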
[9] = HEK-293T viability loss after treatment – luminescence, T-cell screen hits, cytotoxicity control for TCR NF-kB inhibitor project, dose response (AID 489026); type: functional, cell-based;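 also: cells exposed to compound about 14 hours before the viability readout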
[10] = viability of PTEN-deleted HCT116 cells – cell-based, HCT116 PTEN knockout, dose response (AID 1047); type: functional;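 also: HCT116 colon tumor cells with PTEN knocked out; cells exposed to compound for 60 hours before readout; potency for loss of cell viability measured by luminescence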
[11] = blockers of HIV-1 envelope-mediated cell-cell fusion – cherry-pick, dose response (AID 652057); type: functional, cell-based
[12] = blockers of HIV-1 ZM109 envelope-driven cell-cell fusion – HeLa effector, CEM target cells, luciferase, cherry-pick, dose response (AID 652058); type: functional, cell-based;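 also: luciferase signal from HIV-1 Env mediated cell-cell fusion of effector and target cells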
[13] = HIV-1 AD8 envelope cell-cell fusion blockers – cherry-pick, dose response (AID 652062); type: functional, cell-based;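 also: luciferase signal from cell-cell fusion driven by HIV-1 clade B AD8 Env; potency is for inhibitors of fusion seen as a drop in luminescence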
[14] = off-target signal loss in HeLa-CEM21 co-culture – HeLa F-luc CTL cells, cherry-picked, counter-screen for HIV-1 Env fusion inhibitor project, dose response (AID 652040); type: functional, cell-based;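 also: potency for signal decrease marking cytotoxic or nonspecific inhibition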
[15] = microbe, parasite or virus in culture; type: functional; conditions: Mycobacterium tuberculosis
[16] = Trypanosoma cruzi growth suppression in host cells – NIH3T3 host cells, beta-gal luminescence, confirmation (AID 2044); type: functional, cell-based;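 also: intracellular parasites grown in NIH/3T3 mouse fibroblasts as host cells; luminescent beta-galactosidase reporter signal from transgenic T. cruzi replicating inside host cells; inhibitors lower the luminescence signal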
Vero = test: cells; type: functional; conditions: Chlorocebus sabaeus
[17] = NIH3T3 cell viability loss – ATP luminescence, mouse fibroblasts, counter-screen, dose response (AID 2010); type: functional, cell-based;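 also: cells exposed to compound for about 90 hours before reading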
cells [18] = type: functional, cell-based
cells [19] = type: functional, cell-based; remark: listed apart in the source
HEK293 = test: EBV LMP1 TES2 canonical NF-kB signalling blockers – cell-based, HEK293, luciferase, cherry-pick, dose response (AID 588343); type: functional; conditions: Homo sapiens
INS1 = test: INS-1E survival protection against cytokine death – cell-based, luminescence, retest, dose response (AID 449756); type: functional; conditions: Rattus norvegicus;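 also: cell death triggered by IL-1 beta plus TNF-alpha plus IFN-gamma mixture; protective hits raise ATP signal compared with cytokine alone wells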

CC(C)Sc1nc2c3ccccc3nc-2c(O)n1C
IC50 [1]: 0.899 µM (not active)

Cc1cc(N2CCN(c3ccccc3)CC2)n2cc(-c3ccccc3)nc2n1
IC50 (cells [2]): 40 µM (active) | CC50 [3]: 45.6 µM (active)

CCOC(=O)N1CCC(NC(=O)c2ccc3c(c2)ncn3C2CCCC2)CC1
IC50 [1]: 23.1 µM (not active)

CCOC(=O)C1CN(S(=O)(=O)c2ccc(C)cc2)C1
IC50 [1]: 4.65 µM (not active)

O=S(=O)(c1ccccc1F)N1CCCC(c2nc(O)c3nnn(Cc4ccccc4Cl)c3n2)C1 (centres undefined)
IC50 (cells [2]): 47.6 µM (active) | CC50 [3]: 47.8 µM (active)

O=Cc1ccc(-c2ccc([N+](=O)[O-])cc2Cl)o1
IC50 [1]: > 50 µM (not active)

Cc1ccc(S(=O)(=O)NNC(=O)C(=O)NNc2ccccn2)cc1
AC50 [4]: 0.213 µM (active) | IC50 [5]: > 20 µM (inactive)

CCCCCCCCC[n+]1cccc2c3ccccc3ccc21
EC50 [6]: 64.7 µM (active) | EC50 [7]: 67.9 µM (active) | AC50 (Cytochrome P450 2C19): 20 µM (inconclusive) | EC50 [8]: 0.798 µM (active) | IC50 [9]: 49.8 µM (inactive) | EC50 [10]: 0.868 µM (active)

COC(=O)[C@@]1(C)[C@H]2C(=O)N(Cc3ccccc3)C(=O)[C@H]2[C@H]2CN=C(SCc3ccccc3)N21
AC50 [11]: 0.75 µM (active) | AC50 [12]: 0.74 µM (active) | AC50 [13]: 4.03 µM (active) | AC50 [14]: 1.02 µM (active)

c1ccc(C[C@H]2CN=C(Nc3ccccc3)N2CCCC2CCCC2)cc1
CC50 [15]: > 40 µM (active)

Cc1ncccc1C(=O)N1CCCC(C(=O)c2ccc3c4c(cccc24)CC3)C1 (centres undefined)
AC50 [11]: 7.15 µM (active) | AC50 [12]: 8.12 µM (active) | AC50 [13]: 8.47 µM (active) | AC50 [14]: 20.4 µM (active)

CCc1ccc2nc(N(CCCN(C)C)C(=O)c3ccc4c(c3)OCCO4)sc2c1
EC50 [16]: 0.214 µM (active) | CC50 (Vero): > 25 µM (active) | EC50 [17]: 8.8 µM (active)

COc1ccccc1NCC(=O)Nc1cc(S(=O)(=O)N2CCOCC2)ccc1N1CCOCC1
IC50 (cells [2]): 5.88 µM (active)

Cc1cccc(N(C(=O)c2snc(C(N)=O)c2N)C(C(=O)NCC2CCCO2)c2cccs2)c1 (centres undefined)
IC50 [5]: > 20 µM (inactive)

CCc1ccc2nc(O)c(C(c3nnnn3Cc3ccc(OC)cc3)N3CCOCC3)cc2c1 (centres undefined)
AC50 [11]: 4.74 µM (active) | AC50 [12]: 6.44 µM (active) | AC50 [13]: 43.7 µM (active) | AC50 [14]: 7.97 µM (active)

Cc1ccc(OCc2cc(C(=O)N(C)Cc3cnc4ccccn34)no2)cc1C
CC50 [15]: > 40 µM (active)

NC(=O)c1nsc(C(=O)N(c2ccc(Cl)cc2)C(C(=O)NCC2CCCO2)c2cccs2)c1N (centres undefined)
IC50 [5]: > 20 µM (inactive)

COc1ccc2c(c1)C(=NNC(=O)c1ccccn1)c1cc(OC)ccc1-2
IC50 (cells [2]): 24.6 µM (active) | CC50 [3]: 38.6 µM (active)

O=C(Nc1cccc(Cl)c1)Nc1cccc(C(=O)O)c1
EC50 (cells [18]): > 350 µM (not active) | EC50 (cells [19]): 7.49 µM (active) | AC50 (HEK293): 10.5 µM (active)

CCOC(=O)c1c(CSc2nc(C)cc(C)c2C#N)n(C)c2cc(Br)c(OC(C)=O)cc12
AC50 (INS1): 4.21 µM (active) | AC50 (HEK293): 31.6 µM (active)

CCOCCOC(=O)c1[nH]c2c(c1C)C(=O)CC(c1cccs1)C2 (centres undefined)
IC50 [9]: > 80 µM (inactive)
